Results taken from ChEMBL document CHEMBL1201862, “PubChem BioAssay data set” (2004).
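Values below derive from 48-hour exposures of cells grown in 96-well plates, with endpoints linearly interpolated between the two concentrations bracketing the appropriate inhibition level. GI50 is the concentration that inhibits growth by half.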 Activity calls are given as the source filed them. No stated cut-off is given here; in the data, active = GI50 up to about 1.1 µM and inactive = higher.

Key:
Assay in all cases: growth of human tumour cells (NCI), 48 h
Hs-578T = tested on: Hs-578T
Malme-3M = tested on: Malme-3M
NCI-H226 = tested on: NCI-H226
SW-620 = tested on: SW-620
RXF 393 = tested on: RXF 393
NCI-H23 = tested on: NCI-H23
SN12C = tested on: SN12C
UACC-62 = tested on: UACC-62
HCC 2998 = tested on: HCC 2998
SK-MEL-5 = tested on: SK-MEL-5
CCRF-CEM = tested on: CCRF-CEM
MDA-MB-231 = tested on: MDA-MB-231
U-251 = tested on: U-251
SK-MEL-2 = tested on: SK-MEL-2
HCT-15 = tested on: HCT-15
HL-60 = tested on: HL-60
SNB-75 = tested on: SNB-75
OVCAR-5 = tested on: OVCAR-5
OVCAR-4 = tested on: OVCAR-4

**Q.** What does the source list for `C#CC(=O)OCC#CCOC(=O)C#C`?
**A.** GI50 (Hs-578T): 27.8 µM (inactive); GI50 (Malme-3M): 19.1 µM (inactive); GI50 (NCI-H226): 19 µM (inactive); GI50 (SW-620): 20 µM (inactive); GI50 (RXF 393): 19.1 µM (inactive); GI50 (NCI-H23): 23.3 µM (inactive); GI50 (SN12C): 28.5 µM (inactive); GI50 (UACC-62): 22.7 µM (inactive); GI50 (HCC 2998): 19.6 µM (inactive); GI50 (SK-MEL-5): 72.9 µM (inactive); GI50 (CCRF-CEM): 15.9 µM (inactive); GI50 (MDA-MB-231): 25.5 µM (inactive); GI50 (U-251): 17.5 µM (inactive); GI50 (SK-MEL-2): 20.2 µM (inactive); GI50 (HCT-15): 18.7 µM

**Q.** How did the GI50 (HL-60) turn out when `Cc1cc2ncc3c(=O)n(NS(=O)(=O)c4ccc(N)cc4)ccc3n2n1` was run?
**A.** > 100 µM (inactive)

**Q.** What about the GI50 (SNB-75) of the same compound?
**A.** > 100 µM (inactive)

**Q.** And the GI50 (Hs-578T)?
**A.** > 100 µM (inactive)

**Q.** And the GI50 (Malme-3M)?
**A.** 36.3 µM (inactive)

**Q.** And the GI50 (OVCAR-5)?
**A.** > 100 µM (inactive)

**Q.** What about the GI50 (NCI-H226) of the same compound?
**A.** > 100 µM (inactive)

**Q.** And the GI50 (SW-620)?
**A.** > 100 µM (inactive)

**Q.** And the GI50 (NCI-H23)?
**A.** > 100 µM (inactive)

**Q.** What about the GI50 (SN12C) of the same compound?
**A.** > 100 µM (inactive)

**Q.** And the GI50 (UACC-62)?
**A.** > 100 µM (inactive)

**Q.** And the GI50 (SK-MEL-5)?
**A.** > 100 µM (inactive)

**Q.** And the GI50 (CCRF-CEM)?
**A.** > 100 µM (inactive)

**Q.** What about the GI50 (MDA-MB-231) of the same compound?
**A.** > 100 µM (inactive)

**Q.** And the GI50 (U-251)?
**A.** > 100 µM (inactive)

**Q.** What about the GI50 (OVCAR-4) of the same compound?
**A.** > 100 µM (inactive)

**Q.** What about the GI50 (SK-MEL-2) of the same compound?
**A.** > 100 µM (inactive)

**Q.** What about the GI50 (HCT-15) of the same compound?
**A.** > 100 µM

**Q.** Which results are given for `NC1CC(=O)c2ccccc21` (stereo not given)?
**A.** GI50 (SNB-75): > 100 µM (inactive); GI50 (Hs-578T): > 100 µM (inactive); GI50 (OVCAR-5): > 100 µM (inactive); GI50 (NCI-H226): > 100 µM (inactive); GI50 (SW-620): > 100 µM (inactive); GI50 (RXF 393): > 100 µM (inactive); GI50 (NCI-H23): > 100 µM (inactive); GI50 (SN12C): > 100 µM (inactive); GI50 (UACC-62): > 100 µM (inactive); GI50 (HCC 2998): > 100 µM (inactive); GI50 (SK-MEL-5): > 100 µM (inactive); GI50 (CCRF-CEM): > 100 µM (inactive); GI50 (MDA-MB-231): > 100 µM (inactive); GI50 (U-251): > 100 µM (inactive); GI50 (OVCAR-4): > 100 µM (inactive); GI50 (SK-MEL-2): > 100 µM (inactive); GI50 (HCT-15): > 100 µM

**Q.** How did the GI50 (SNB-75) turn out when `CC(C)(/N=N/C(C)(C)C1=NCCN1)C1=NCCN1` was run?
**A.** > 100 µM (inactive)

**Q.** What about the GI50 (Hs-578T) of the same compound?
**A.** > 100 µM (inactive)

**Q.** And the GI50 (Malme-3M)?
**A.** > 100 µM (inactive)

**Q.** And the GI50 (OVCAR-5)?
**A.** > 100 µM (inactive)

**Q.** What about the GI50 (NCI-H226) of the same compound?
**A.** > 100 µM (inactive)

**Q.** What about the GI50 (SW-620) of the same compound?
**A.** > 100 µM (inactive)

**Q.** What about the GI50 (RXF 393) of the same compound?
**A.** > 100 µM (inactive)

**Q.** What about the GI50 (SN12C) of the same compound?
**A.** > 78.5 µM (inactive)

**Q.** And the GI50 (UACC-62)?
**A.** > 100 µM (inactive)

**Q.** And the GI50 (HCC 2998)?
**A.** > 100 µM (inactive)

**Q.** What about the GI50 (SK-MEL-5) of the same compound?
**A.** > 100 µM (inactive)

**Q.** What about the GI50 (CCRF-CEM) of the same compound?
**A.** > 100 µM (inactive)

**Q.** And the GI50 (MDA-MB-231)?
**A.** > 100 µM (inactive)

**Q.** What about the GI50 (U-251) of the same compound?
**A.** > 100 µM (inactive)

**Q.** What about the GI50 (OVCAR-4) of the same compound?
**A.** > 100 µM (inactive)

**Q.** And the GI50 (SK-MEL-2)?
**A.** > 100 µM (inactive)

**Q.** And the GI50 (HCT-15)?
**A.** > 100 µM

**Q.** For `CC(C)(Oc1ccc(Cl)cc1)C(=O)N(C(=O)N1CCCCC1)c1ccccc1`, which GI50 (HL-60) is on record?
**A.** 2.16 µM (inactive)

**Q.** What about the GI50 (Hs-578T) of the same compound?
**A.** 16.9 µM (inactive)

**Q.** And the GI50 (Malme-3M)?
**A.** 12 µM (inactive)

**Q.** And the GI50 (OVCAR-5)?
**A.** 12 µM (inactive)

**Q.** And the GI50 (NCI-H226)?
**A.** 17.6 µM (inactive)

**Q.** And the GI50 (SW-620)?
**A.** 12.9 µM (inactive)

**Q.** What about the GI50 (RXF 393) of the same compound?
**A.** 18 µM (inactive)

**Q.** What about the GI50 (NCI-H23) of the same compound?
**A.** 14.2 µM (inactive)

**Q.** And the GI50 (SN12C)?
**A.** 17 µM (inactive)

**Q.** What about the GI50 (UACC-62) of the same compound?
**A.** 13.2 µM (inactive)

**Q.** And the GI50 (SK-MEL-5)?
**A.** 10.4 µM (inactive)

**Q.** What about the GI50 (CCRF-CEM) of the same compound?
**A.** 16.7 µM (inactive)

**Q.** What about the GI50 (MDA-MB-231) of the same compound?
**A.** 10.6 µM (inactive)

**Q.** What about the GI50 (U-251) of the same compound?
**A.** 14.2 µM (inactive)

**Q.** And the GI50 (SK-MEL-2)?
**A.** 13.1 µM (inactive)

**Q.** And the GI50 (HCT-15)?
**A.** 6.28 µM

**Q.** Which results are given for `Cc1cc(NCCCCCCCCCC[n+]2c(C)cc(N)c3ccccc32)c2ccccc2n1`?
**A.** GI50 (HL-60): 0.0721 µM (active); GI50 (SNB-75): 0.853 µM (active); GI50 (Hs-578T): 0.375 µM (active); GI50 (Malme-3M): 1.82 µM (inactive); GI50 (OVCAR-5): 4.2 µM (inactive); GI50 (NCI-H226): 2.67 µM (inactive); GI50 (SW-620): 1.84 µM (inactive); GI50 (RXF 393): 4.1 µM (inactive); GI50 (NCI-H23): 0.0708 µM (active); GI50 (SN12C): 0.733 µM (active); GI50 (UACC-62): 1.16 µM (inactive); GI50 (HCC 2998): 0.675 µM (active); GI50 (SK-MEL-5): 0.112 µM (active); GI50 (CCRF-CEM): 0.472 µM (active); GI50 (MDA-MB-231): 0.652 µM (active); GI50 (U-251): 0.069 µM (active); GI50 (OVCAR-4): 1.42 µM (inactive); GI50 (SK-MEL-2): 1.87 µM (inactive); GI50 (HCT-15): 3.95 µM

**Q.** With `Brc1ccc(/N=C/C=C(\Nc2ccc(Br)cc2)C23CC4CC(CC(C4)C2)C3)cc1` as the compound, how does the GI50 (HL-60) read?
**A.** 2.95 µM (inactive)

**Q.** And the GI50 (SNB-75)?
**A.** 17 µM (inactive)

**Q.** And the GI50 (Hs-578T)?
**A.** 27.4 µM (inactive)

**Q.** And the GI50 (Malme-3M)?
**A.** 19.1 µM (inactive)

**Q.** What about the GI50 (OVCAR-5) of the same compound?
**A.** 14.7 µM (inactive)

**Q.** What about the GI50 (NCI-H226) of the same compound?
**A.** 97.3 µM (inactive)

**Q.** And the GI50 (SW-620)?
**A.** 18.1 µM (inactive)

**Q.** And the GI50 (RXF 393)?
**A.** 14.7 µM (inactive)

**Q.** And the GI50 (NCI-H23)?
**A.** 16.9 µM (inactive)

**Q.** And the GI50 (SN12C)?
**A.** 20.6 µM (inactive)

**Q.** What about the GI50 (UACC-62) of the same compound?
**A.** 1.17 µM (inactive)

**Q.** What about the GI50 (HCC 2998) of the same compound?
**A.** 16 µM (inactive)

**Q.** And the GI50 (SK-MEL-5)?
**A.** 9.33 µM (inactive)

**Q.** What about the GI50 (CCRF-CEM) of the same compound?
**A.** 1.63 µM (inactive)

**Q.** And the GI50 (MDA-MB-231)?
**A.** 15.6 µM (inactive)

**Q.** What about the GI50 (U-251) of the same compound?
**A.** 14.4 µM (inactive)

**Q.** What about the GI50 (OVCAR-4) of the same compound?
**A.** 12.7 µM (inactive)

**Q.** And the GI50 (SK-MEL-2)?
**A.** 8.73 µM (inactive)

**Q.** What about the GI50 (HCT-15) of the same compound?
**A.** 6.34 µM
